Consider 46 compounds from ChEMBL document CHEMBL1201862, “PubChem BioAssay data set” (2004).

One may read the CC50 as the concentration at which the toxic effect on the cells reaches its halfway point. The term EC50 denotes the midpoint of the concentration-response curve. By AC50 is commonly meant the midpoint of the concentration-response curve, whichever way the signal moves.

Several values for one entry are separate records, joined by “and”; a condition that tells them apart may be missing. Identical values can stand only once. Activity calls are given as the source filed them.

The nature of assay [1]: viability of uninfected HEp-2 cells – cell-based, HTS, cytotoxicity control for RSV inhibitor project, dose response (AID 2410). The assay is classed as functional. The following applies: human respiratory syncytial virus.
The nature of assay [2]: Luminescence Cell-Based Dose Confirmation HTS to Identify Activators of 5'UTR Stem-Loop Driven Alpha-Synuclein mRNA Translation in H4 Neuroglioblastoma Cells. [Related pubchem assays: 1829 (Project Summary), 1814 (Primary HTS)]. It counts as functional.
Assay [3] relates to H4. Nature of the assay: Luminescence Cell-Based Dose Response HTS to Identify Activators of 5'UTR Stem-Loop Driven Prion Protein mRNA Translation in H4 Neuroglioblastoma Cells. [Related pubchem assays: 1829 (Project Summary), 1814 (Primary HTS)]. The assay is classed as functional. Particulars: Homo sapiens.
A short description of assay [4]: Luminescence Cell-Based Dose Response HTS to Identify Activators of Luciferase Translation or Activity in H4 […] Cells. [Related pubchem assays: 1829 (Project Summary), 1814 (Primary HTS)]. It counts as functional.
Assay [5] addresses Cytochrome P450 2D6 (Homo sapiens, UniProt P10635).
Assay [6] deals with Cytochrome P450 2C9 (Homo sapiens, UniProt P11712).
Chain of Cytochrome P450 2C9 (P11712 whole entry): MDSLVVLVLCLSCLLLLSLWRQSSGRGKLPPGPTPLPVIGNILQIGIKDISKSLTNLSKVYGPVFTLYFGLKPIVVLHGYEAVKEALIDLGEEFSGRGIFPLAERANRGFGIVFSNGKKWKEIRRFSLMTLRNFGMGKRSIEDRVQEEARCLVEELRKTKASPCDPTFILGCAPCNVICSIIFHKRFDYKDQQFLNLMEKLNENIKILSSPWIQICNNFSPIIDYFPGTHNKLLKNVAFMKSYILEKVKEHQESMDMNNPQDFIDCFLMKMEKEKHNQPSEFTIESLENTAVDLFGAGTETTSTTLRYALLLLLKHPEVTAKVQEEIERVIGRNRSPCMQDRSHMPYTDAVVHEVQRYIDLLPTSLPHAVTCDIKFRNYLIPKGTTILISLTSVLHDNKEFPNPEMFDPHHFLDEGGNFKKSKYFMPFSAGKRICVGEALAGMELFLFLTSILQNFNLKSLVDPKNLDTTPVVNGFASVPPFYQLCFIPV
Assay [7] has as its target FAD-linked sulfhydryl oxidase ALR (Homo sapiens, UniProt P55789). Kind of assay: ALR-catalysed DTT oxidation blockers – biochemical, H2O2 detection, luminescence, cherry-pick, dose response (AID 493248).
For assay [8], the target named is T1, Cytochrome P450 1A2 (Homo sapiens, UniProt P05177).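 Also: PubChem cytochrome P450 panel assay, CYP1A2 panel member.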
T1 sequence (P05177 whole entry): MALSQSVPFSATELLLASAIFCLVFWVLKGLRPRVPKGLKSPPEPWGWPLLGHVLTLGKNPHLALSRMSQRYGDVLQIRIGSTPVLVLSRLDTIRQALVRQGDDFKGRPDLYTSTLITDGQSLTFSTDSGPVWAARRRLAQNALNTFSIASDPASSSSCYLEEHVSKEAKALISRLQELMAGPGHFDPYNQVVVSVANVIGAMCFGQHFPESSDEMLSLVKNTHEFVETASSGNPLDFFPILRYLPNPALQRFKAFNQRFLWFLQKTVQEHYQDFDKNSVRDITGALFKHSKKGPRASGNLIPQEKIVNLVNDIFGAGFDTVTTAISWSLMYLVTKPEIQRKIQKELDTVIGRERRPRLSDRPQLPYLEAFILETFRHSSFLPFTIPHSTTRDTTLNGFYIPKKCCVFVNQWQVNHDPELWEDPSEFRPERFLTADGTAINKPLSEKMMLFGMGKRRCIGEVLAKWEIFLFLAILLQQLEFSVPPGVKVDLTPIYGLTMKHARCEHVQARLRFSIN

Assay [9] is described as follows: Luminescence Cell-Based Dose Retest to Confirm Inhibitors of Cancer Stem Cells. [Related pubchem assays (depositor defined):AID2717, AID2721]. The assay is classed as functional. Particulars: Homo sapiens.
The target in assay [10] is Cytochrome P450 3A4 (Homo sapiens, UniProt P08684).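 Also: CYP3A4 tested as one member of a cytochrome P450 panel screen.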
Chain of Cytochrome P450 3A4 (P08684 whole entry): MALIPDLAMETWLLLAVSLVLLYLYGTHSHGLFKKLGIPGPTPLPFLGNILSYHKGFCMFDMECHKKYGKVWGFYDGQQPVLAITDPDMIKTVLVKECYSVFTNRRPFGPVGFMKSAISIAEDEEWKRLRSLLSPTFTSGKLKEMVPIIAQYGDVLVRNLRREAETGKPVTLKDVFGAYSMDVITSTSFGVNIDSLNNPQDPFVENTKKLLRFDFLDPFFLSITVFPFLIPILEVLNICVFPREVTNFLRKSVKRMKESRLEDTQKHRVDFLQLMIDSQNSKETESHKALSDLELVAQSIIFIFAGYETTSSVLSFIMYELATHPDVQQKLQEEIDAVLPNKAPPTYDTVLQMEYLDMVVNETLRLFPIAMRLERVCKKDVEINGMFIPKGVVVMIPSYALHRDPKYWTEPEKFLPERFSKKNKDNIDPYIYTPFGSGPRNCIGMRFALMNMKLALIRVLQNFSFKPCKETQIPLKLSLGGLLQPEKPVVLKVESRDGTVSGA
Assay [11] can be described thus: alpha-synuclein stem-loop luciferase translation blockers – H4 neuroglioma cells, luminescence, confirmation (AID 1988). The assay is classed as functional, cell-based.
Assay [12] is described as follows: Luminescence Cell-Based Dose Response HTS to Identify Inhibitors of 5'UTR Stem-Loop Driven Prion Protein mRNA Translation in H4 Neuroglioblastoma Cells. [Related pubchem assays: 1827 (Project Summary), 1813 (Primary HTS)]. The assay is classed as functional.
Assay [13] is described as follows: luciferase reporter signal suppression in cells – H4 neuroglioma cells, luminescence, dose response (AID 1990). The assay is classed as functional, cell-based. In general terms: In a reporter assay the amount or activity of a reporter protein is the signal.
Assay [14] concerns INS1. Nature of the assay: INS-1E survival protection against cytokine death – cell-based, luminescence, retest, dose response (AID 449756).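 Also: cell death triggered by IL-1 beta plus TNF-alpha plus IFN-gamma mixture; protective hits raise ATP signal compared with cytokine alone wells.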 It counts as functional. Particulars: Rattus norvegicus.

Chain of Cytochrome P450 2D6 (P10635 whole entry): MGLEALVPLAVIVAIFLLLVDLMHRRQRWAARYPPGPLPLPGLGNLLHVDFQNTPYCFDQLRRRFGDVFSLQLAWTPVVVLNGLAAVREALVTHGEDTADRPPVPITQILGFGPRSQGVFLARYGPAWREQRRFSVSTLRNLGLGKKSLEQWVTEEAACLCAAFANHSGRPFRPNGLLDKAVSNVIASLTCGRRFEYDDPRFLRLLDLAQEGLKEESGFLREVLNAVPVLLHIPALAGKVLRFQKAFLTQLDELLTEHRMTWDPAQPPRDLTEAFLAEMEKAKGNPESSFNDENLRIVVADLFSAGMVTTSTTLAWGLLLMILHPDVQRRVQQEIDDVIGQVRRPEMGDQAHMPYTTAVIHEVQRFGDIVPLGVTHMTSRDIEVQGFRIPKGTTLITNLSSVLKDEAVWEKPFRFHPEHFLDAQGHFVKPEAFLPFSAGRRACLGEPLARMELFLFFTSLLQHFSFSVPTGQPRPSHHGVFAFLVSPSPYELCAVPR
Chain of FAD-linked sulfhydryl oxidase ALR (P55789 whole entry): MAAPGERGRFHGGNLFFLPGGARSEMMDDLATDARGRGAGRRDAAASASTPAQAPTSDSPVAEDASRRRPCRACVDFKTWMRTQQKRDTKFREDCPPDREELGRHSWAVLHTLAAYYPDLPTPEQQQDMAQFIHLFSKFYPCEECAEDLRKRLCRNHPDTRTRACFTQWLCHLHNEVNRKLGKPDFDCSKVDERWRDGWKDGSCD

In the case of `CCn1nc(C)c(CN2CCc3c([nH]c4ccccc34)C2C(C)(C)C)c1C` (stereo not given), in [1], the CC50 was > 50 µM (active).

Regarding `NC(=O)NNC1=Nc2cccc3cccc1c23`, the CC50 in [1] was > 50 µM (active).

As for `CC1CCC(NC(=O)c2cc3c(=O)n(C)c4ccccc4c3n2C)CC1` (stereo not given), the values for the EC50 in assay [2], in assay [3] and in [4] were 7.84 µM (active), > 120 µM (not active) and 14.3 µM (active), respectively.

For `O=C(COC(=O)c1ccc2[nH]c3c(c2c1)CCCC3)Nc1ccccc1`, the EC50 in assay [2] is 5.12 µM (active); in assay [3], > 120 µM (not active); in assay [4], 41.9 µM (active).

Consider `Cc1ccc(/C=c2/sc3n(c2=O)CCCN=3)o1`, for which the EC50 in [3] was 11.8 µM (active); in assay [4], 0.161 µM (active).

With `O=C(Nc1ccc(N2CCOCC2)cc1)c1cc2c(s1)CCCC2`, the CC50 in assay [1] was > 50 µM (active).

In the case of `CC(Cc1ccccc1)C(=O)NCc1ccccn1` (stereo not given), the AC50 in assay [5] was 39.8 µM (inconclusive).

Take `COC(=O)C1CC1C(NC(=O)[C@H]1CCCCN1)c1ccccc1` (stereo not given in full): the AC50 in assay [5] and in assay [6] was 20 µM (inconclusive) throughout.

Consider `CCNC(=O)Nc1ccccc1C(=O)OC`, for which, in [1], the CC50 is 27.7 µM (active).

Take `CCOC(=O)C1=C(C)N=c2s/c(=C/c3ccc(OCC(=O)O)cc3)c(=O)n2C1c1ccc(F)cc1` (stereo not given): the CC50 in assay [1] was 39.8 µM (active).

As to `Cc1cccc(NC(=O)c2cnc3sccn3c2=O)n1`, the results for the EC50 in assay [2], in [3] and in assay [4] were 0.125 µM (active), 63.9 µM (active) and 32.9 µM (active), respectively.

Take `C=CCn1c(S)nnc1C(C)NC(=O)c1cccc(C)c1` (stereo not given): the AC50 in assay [7] is 4.01 µM (active).

`CCN(CC)CCNC(=O)C(C)c1nn(C)c(=O)c2ccccc12` (stereo not given): the AC50 in assay [5] is 20 µM (inconclusive).

For `CSc1nnc2c(n1)OC(C)N(C(=O)c1ccccc1)c1ccccc1-2` (stereo not given), the figures for the EC50 in [2], in assay [3] and in assay [4] were 15.4 µM (active), > 120 µM (not active) and > 120 µM (not active), respectively. For the same compound, the AC50 is 31.6 µM (inconclusive) in assay [6] and 10 µM (inconclusive) in [8].

Take `COc1ccc2c(c1)C(=O)CC(c1ccc3c(c1)OCCO3)O2` (stereo not given): the EC50 was 7.88 µM (active) in assay [2], 13.9 µM (active) in assay [3] and 42 µM (active) in [4].

On to `CCN(CC)CCNC(=O)c1cc(Cl)c(N)cc1OC` [METOCLOPRAMIDE], for which the AC50 is 6.31 µM (inconclusive) and 15.8 µM (inconclusive) in assay [5]; 15.8 µM (inconclusive) in assay [8].

For the compound `CCN(C(=O)COC(=O)/C=C/c1cnc2ccccc2n1)c1ccccc1`, the EC50 is > 120 µM (not active) in assay [2], > 120 µM (not active) in [3] and 0.49 µM (active) in assay [4].

Turning to `CN(C)c1ccc(-c2cc([C@H]3[C@@H]4C=CCC[C@@]4(C)C(=O)N3Cc3ccccc3)ccc2F)cc1`, the CC50 in assay [1] is 13.1 µM (active). The AC50 in assay [9] was 2.28 µM (active).

Take `COc1cccc(N(C(=O)c2snc(C(N)=O)c2N)C(C(=O)NCc2ccccc2)c2ccc(O)cc2)c1` (stereo not given): the half-maximal cytotoxic concentration (CC50) in [1] is > 50 µM (active).

As to `O=C(Cn1c(=S)nc2ccccn21)N1CCc2ccccc2C1`, the EC50 is 5.67 µM (active) in [2], 10.3 µM (active) in assay [3] and 30.2 µM (active) in [4].

Consider `CCCSC1=C(C#N)C(c2cccnc2)C(C(=O)OCC)=C(c2ccccc2)N1` (stereo not given), for which, in [5], the AC50 was 39.8 µM (inconclusive).

On to `COc1ccccc1CNc1nc(-c2cccnc2)nc2ccccc12`, for which the AC50 in assay [10] was 1.26 µM (inconclusive); in assay [5], 25.1 µM (inconclusive).

As to `Cn1c(-c2ccc3c(c2)OCO3)cnc1NCc1cccc(O)c1`, the AC50 in [7] is 2.49 µM (active).

As for `COc1ccc(C(=O)N2CCN=C2SCc2cccnc2)c(OC)c1`, in assay [7], the AC50 was 0.067 µM (active).

With `COc1ccc(-c2[nH]nc(C)c2-c2ccccc2OC)c(O)c1`, in assay [7], the concentration at half-maximal activity (AC50) is < 0.005 µM (active).

Regarding `COC(=O)C1=C(C)N(c2cc(C)cc(C)c2)/C(=C/c2ccc(O)cc2)C1=O`, the CC50 in assay [1] is 18.4 µM (active).

Regarding `O=C(Nc1ccc(Nc2ccccc2)cc1)c1ccco1`, in assay [7], the AC50 is 5.94 µM (active). Moreover, the CC50 in assay [1] was 45.1 µM (active).

As to `CCN(CCNC(=O)C1CCN(S(=O)(=O)c2cccc3nsnc23)CC1)c1ccccc1`, in assay [7], the AC50 is 4.69 µM (active).

`Cc1cccc(NC(=O)CSc2nc(COc3ccccc3)nc3ccccc23)c1C`: the AC50 in assay [5] and in assay [8] was 12.6 µM (inconclusive) each time.

As to `C/C(=N\NC(=O)C12CCC(C)(C(=O)O1)C2(C)C)c1ccccc1O` (stereo not given), the concentration giving a half-maximal response (EC50) in assay [11] is > 120 µM (not active); in assay [12], 13.5 µM (active); in [13], 13.1 µM (active).

Turning to `O=C(N/N=C\c1cccc(O)c1)c1ccncc1`, the AC50 in [5] is 3.16 µM (inconclusive).

For the compound `O=C(CN1CCN(c2ccccc2O)CC1)NCCCc1ccccc1`, the concentration at half-maximal activity (AC50) in assay [7] is 0.301 µM (active).

Regarding `O=C1CC(NCCC2=CCCCC2)C(=O)N1c1cccc(Cl)c1Cl` (stereo not given), the concentration at half-maximal activity (AC50) in [10], in assay [5] and in assay [8] was 15.8 µM (inconclusive) in each case.

Consider `O=C(CN1C(=O)NC2(CCCC2)C1=O)Nc1cc(Cl)ccc1N1CCCC1`, for which, in assay [7], the AC50 was 0.244 µM (active).

For `O=C(Nc1ccc(N2CCCCC2)cc1)C(Cl)c1ccccc1` (stereo not given), the concentration for a half-maximal effect (EC50) in assay [3] was 12.8 µM (active); in [4], 0.125 µM (active).

Take `Oc1c(/C=N/c2ccc(Cl)cn2)sc2ccccc12`: the EC50 was 15.4 µM (active) in [2], 15.5 µM (active) in assay [3] and 12.3 µM (active) in [4].

As to `CCCn1c(S)nnc1C(C)NC(=O)c1ccccc1` (stereo not given), in assay [7], the AC50 is 3 µM (active).

For `CC/N=C1/S/C(=C\c2cn(CC(=O)NCc3ccco3)c3ccccc23)C(=O)N1CC`, the EC50 in [11] is 13.9 µM (active); in assay [12], 14.8 µM (active); in assay [13], 11.1 µM (active).

`Cc1ccc(-c2ccnc3c(Cl)c(C)nn23)cc1`: the results for the EC50 in [11], in assay [12] and in [13] were 13.7 µM (active), > 120 µM (not active) and > 120 µM (not active), respectively.

On to `CC(C)=NNc1nc(-c2ccc(N3C(=O)CCC3=O)cc2)cs1`, for which, in assay [7], the half-maximal activity concentration (AC50) is 0.119 µM (active).

`O=C(O)c1nc2ccccc2nc1C(=O)O`: the EC50 in assay [2] was 11.1 µM (active); in assay [3] it was > 120 µM (not active); in assay [4] it was 25.5 µM (active).

As for `CC1=NC(C)=C(C(=O)OCCNC(=O)c2ccccc2O)C(c2ccccc2[N+](=O)[O-])/C1=C(\O)OCC1CCCO1` (stereo not given), the concentration giving a half-maximal response (EC50) in assay [11] was 78.4 µM (active); in [12], > 120 µM (not active); in assay [13], 17 µM (active). For the same compound, the AC50 in assay [14] was 40.6 µM (active).

Take `Cn1c(C(=O)N2COCC2(C)C)cc2c(=O)n3ccccc3nc21`: the EC50 in [2] is 17.2 µM (active); in assay [3] it was 61.7 µM (active); in assay [4] it was 12 µM (active). The AC50 in [6] was 5.01 µM (inconclusive).

Regarding `CCOC(=O)c1c(C)[nH]c(C(=O)Cn2c(=O)c3c(ncn3CC)n(Cc3ccccc3)c2=O)c1C`, the EC50 in [11] was 17.2 µM (active); in [12] it was > 120 µM (not active); in assay [13] it was > 120 µM (not active).

On to `S=C(Nc1cc(Cl)cc(Cl)c1)NC1CCN(Cc2ccccc2)CC1`, for which the half-maximal effective concentration (EC50) in [11] is 11.4 µM (active); in assay [12], > 120 µM (not active); in [13], > 120 µM (not active). Moreover, the concentration at half-maximal activity (AC50) in assay [9] is 5.23 µM (active).

Regarding `Oc1c2nc3ccccc3c-2ncn1CCC1=CCCCC1`, the EC50 in assay [2] was 43.3 µM (active); in assay [3], 1.72 µM (active); in assay [4] it was 46.6 µM (active).
